# From US8735414B2 (priority 2009, dated 2014)
# Tested on: not given
# Assay: not given
# Conditions: not given
row,SMILES,melting point [°C]
1,"N#Cc1c(-c2ccc(S(=O)(=O)NC3(C(F)(F)F)CCC3)cn2)n(C2CCC2)c2cc(OC(F)F)ccc12 [compound 106, 6-[3-cyano-1-cyclobutyl-6-(difluoromethoxy)-1H-indol-2-yl]-N-[1-(trifluoromethyl)cyclobutyl]pyridine-3-sulfonamide]",162 to 168
2,"CC(C)NS(=O)(=O)c1ccc(-c2c(C#N)c3cc(C4CC4)ccc3n2C2CCC2)nc1 [compound 8, 6-(3-cyano-1-cyclobutyl-5-cyclopropyl-1H-indol-2-yl)-N-(propan-2-yl)pyridine-3-sulfonamide]",172 to 174
3,"CC(C)NS(=O)(=O)c1ccc(-c2c(C#N)c3ccc(C4CC4)cc3n2C2CCC2)nc1 [compound 7, 6-(3-cyano-1-cyclobutyl-6-cyclopropyl-1H-indol-2-yl)-N-(propan-2-yl)pyridine-3-sulfonamide]",174 to 176
4,"N#Cc1c(-c2ccc(S(=O)(=O)NC(CF)CF)cn2)n(C2CCC2)c2cc(C3CC3)ccc12 [compound 35, 6-(3-cyano-1-cyclobutyl-6-cyclopropyl-1H-indol-2-yl)-N-(1,3-difluoropropan-2-yl)pyridine-3-sulfonamide]",175 to 178
5,"N#Cc1c(-c2ccc(S(=O)(=O)NC3(C(F)(F)F)CC3)cn2)n(C2CCC2)c2cc(C3CC3)ccc12 [compound 153, 6-(3-cyano-1-cyclobutyl-6-cyclopropyl-1H-indol-2-yl)-N-[1-(trifluoromethyl)cyclopropyl]pyridine-3-sulfonamide]",166 to 171
6,"CC(C)NS(=O)(=O)c1ccc(-c2c(C#N)c3cc(F)ccc3n2C2CCC2)nc1 [compound 5, 6-(3-cyano-1-cyclobutyl-5-fluoro-1H-indol-2-yl)-N-(propan-2-yl)pyridine-3-sulfonamide]",203 to 205
7,"C[C@@H](NS(=O)(=O)c1ccc(-c2c(C#N)c3ccc(OC(F)F)cc3n2C2CCC2)nc1)C(F)(F)F [compound 196, 6-[3-cyano-1-cyclobutyl-6-(difluoromethoxy)-1H-indol-2-yl]-N-[(2R)-1,1,1-trifluoropropan-2-yl]pyridine-3-sulfonamide]",159 to 164
8,"N#Cc1c(-c2ccc(S(=O)(=O)NC(CF)CF)cn2)n(C2CCC2)c2cc(OC(F)F)ccc12 [compound 31, 6-[3-cyano-1-cyclobutyl-6-(difluoromethoxy)-1H-indol-2-yl]-N-(1,3-difluoropropan-2-yl)pyridine-3-sulfonamide]",159 to 161
9,"CC(C)(CF)NS(=O)(=O)c1ccc(-c2c(C#N)c3ccc(OC(F)F)cc3n2C2CCC2)nc1 [compound 77, 6-[3-cyano-1-cyclobutyl-6-(difluoromethoxy)-1H-indol-2-yl]-N-(1-fluoro-2-methylpropan-2-yl)pyridine-3-sulfonamide]",171 to 178
10,"CC(C)NS(=O)(=O)c1ccc(-c2c(C#N)c3ccc(SC(C)C)cc3n2C2CCC2)nc1 [compound 16, 6-[3-cyano-1-cyclobutyl-6-(propan-2-ylsulfanyl)-1H-indol-2-yl]-N-(propan-2-yl)pyridine-3-sulfonamide]",129 to 131
11,"N#Cc1c(-c2ccc(S(=O)(=O)NC(CO)CO)cn2)n(C2CCC2)c2cc(OC(F)F)ccc12 [compound 239, 6-[3-cyano-1-cyclobutyl-6-(difluoromethoxy)-1H-indol-2-yl]-N-(1,3-dihydroxypropan-2-yl)pyridine-3-sulfonamide]",132 to 135
12,"C[C@H](NS(=O)(=O)c1ccc(-c2c(C(N)=O)c3cc(F)c(C4CC4)cc3n2C2CCCC2)nc1)C(F)(F)F [compound 842, 1-cyclopentyl-6-cyclopropyl-5-fluoro-2-(5-{[(2S)-1,1,1-trifluoropropan-2-yl]sulfamoyl}pyridin-2-yl)-1H-indole-3-carboxamide]",255 to 257
13,"C[C@H](NS(=O)(=O)c1ccc(-c2c(C#N)c3ccc(C4CC4)cc3n2C2CCC2)nc1)C(F)(F)F [compound 369, 6-(3-cyano-1-cyclobutyl-6-cyclopropyl-1H-indol-2-yl)-N-[(2S)-1,1,1-trifluoropropan-2-yl]pyridine-3-sulfonamide]",191 to 197
14,"CC(C)(C)NS(=O)(=O)c1ccc(-c2c(C#N)c3ccc(OC(F)F)cc3n2C2CCC2)nc1 [compound 543, N-tert-butyl-6-[3-cyano-1-cyclobutyl-6-(difluoromethoxy)-1H-indol-2-yl]pyridine-3-sulfonamide]",178 to 180
15,"CC(C)NS(=O)(=O)c1ccc(-c2c(C#N)c3ccc(OC(F)F)cc3n2C2CCCC2)nc1 [compound 52, 6-[3-cyano-1-cyclopentyl-6-(difluoromethoxy)-1H-indol-2-yl]-N-(propan-2-yl)pyridine-3-sulfonamide]",157 to 158
16,"CC(C)NS(=O)(=O)c1ccc(-c2c(C#N)c3ccc(OC(F)F)cc3n2C(C)C)nc1 [compound 1, 6-[3-cyano-6-(difluoromethoxy)-1-(propan-2-yl)-1H-indol-2-yl]-N-(propan-2-yl)pyridine-3-sulfonamide]",157 to 159

# Tested on: bicistronic HCV replicon (replicon RNA, GenBank Accession No. AJ242654)
# Assay: HCV Replicon Assay
# Assay type: cell-based
# Conditions: Hepatitis C virus, 72 h, read-out: Replicon IC50
row,SMILES,IC50 [nM]
1,"[2H][C@@](C)(NS(=O)(=O)c1ccc(-c2c(C#N)c3cc(F)c(CC)cc3n2-c2ncccn2)nc1)C(F)(F)F [compound 956, 6-[3-cyano-6-ethyl-5-fluoro-1-(pyrimidin-2-yl)-1H-indol-2-yl]-N-[(2S)-1,1,1-trifluoro(2-deuterium)propan-2-yl]pyridine-3-sulfonamide]",< 500
2,"Cc1cc2c(cc1F)cc(-c1ccc(S(=O)(=O)N[C@@H](C)C(F)(F)F)cn1)n2-c1cccs1 [compound 989, 6-[5-fluoro-6-methyl-1-(thiophen-2-yl)-1H-indol-2-yl]-N-[(2S)-1,1,1-trifluoropropan-2-yl]pyridine-3-sulfonamide]",< 500
3,"Cc1cc2c(cc1O)c(C#N)c(-c1ccc(S(=O)(=O)N[C@H](C)C(F)(F)F)cn1)n2C1CCCC1 [compound 693, 6-(3-cyano-1-cyclopentyl-5-hydroxy-6-methyl-1H-indol-2-yl)-N-[(2R)-1,1,1-trifluoropropan-2-yl]pyridine-3-sulfonamide]",< 500
4,"CC(O)c1cc2c(cc1F)c(C#N)c(-c1ccc(S(=O)(=O)N[C@@H](C)C(F)(F)F)cn1)n2-c1ncccn1 (stereo partly drawn) [compound 911, 6-[3-cyano-5-fluoro-6-(1-hydroxyethyl)-1-(pyrimidin-2-yl)-1H-indol-2-yl]-N-[(2S)-1,1,1-trifluoropropan-2-yl]pyridine-3-sulfonamide]",< 500
5,"Cc1c(F)c(OC(F)F)cc2c1c(C#N)c(-c1ccc(S(=O)(=O)N[C@@H](C)C(F)(F)F)cn1)n2C1CCC1 [compound 810, 6-[3-cyano-1-cyclobutyl-6-(difluoromethoxy)-5-fluoro-4-methyl-1H-indol-2-yl]-N-[(2S)-1,1,1-trifluoropropan-2-yl]pyridine-3-sulfonamide]",< 500
6,"COc1cc2c(cc1F)c(C#N)c(-c1ccc(S(=O)(=O)N[C@@H](C)C(F)(F)F)cn1)n2C1CCC1 [compound 725, 6-(3-cyano-1-cyclobutyl-5-fluoro-6-methoxy-1H-indol-2-yl)-N-[(2S)-1,1,1-trifluoropropan-2-yl]pyridine-3-sulfonamide]",< 500
7,"N#Cc1c(-c2ccc(S(=O)(=O)NC(CF)CF)cn2)n(C2CCCC2)c2c(Cl)cccc12 [compound 88, 6-(7-chloro-3-cyano-1-cyclopentyl-1H-indol-2-yl)-N-(1,3-difluoropropan-2-yl)pyridine-3-sulfonamide]",< 500
8,"CC(C)NS(=O)(=O)c1cnc(-c2c(C#N)c3ccc(CF)cc3n2C2CCC2)nc1 [compound 315, 2-[3-cyano-1-cyclobutyl-6-(fluoromethyl)-1H-indol-2-yl]-N-(propan-2-yl)pyrimidine-5-sulfonamide]",< 500
9,"Cc1ccc2c(C#N)c(-c3ccc(S(=O)(=O)NC(CF)CF)cn3)n(C3CCC3)c2c1 [compound 82, 6-(3-cyano-1-cyclobutyl-6-methyl-1H-indol-2-yl)-N-(1,3-difluoropropan-2-yl)pyridine-3-sulfonamide]",< 500
10,"COC(=O)c1c(-c2ccc(S(=O)(=O)NC(C)(C)C)cn2)n(C2CCCC2)c2cc(C)c(F)cc12 [compound 755, methyl 2-[5-(tert-butylsulfamoyl)pyridin-2-yl]-1-cyclopentyl-5-fluoro-6-methyl-1H-indole-3-carboxylate]",< 500
11,"Cc1cc2c(cc1F)c(C#N)c(-c1ccc(S(=O)(=O)N[C@@H](C)C(F)(F)F)cn1)n2-c1ncccn1 [compound 634, 6-[3-cyano-5-fluoro-6-methyl-1-(pyrimidin-2-yl)-1H-indol-2-yl]-N-[(2S)-1,1,1-trifluoropropan-2-yl]pyridine-3-sulfonamide]",< 500
12,"CCc1cc2c(cc1F)c(C#N)c(-c1ccc(S(=O)(=O)N[C@H](C)C(F)(F)F)cn1)n2-c1ncccn1 [compound 878, 6-[3-cyano-6-ethyl-5-fluoro-1-(pyrimidin-2-yl)-1H-indol-2-yl]-N-[(2R)-1,1,1-trifluoropropan-2-yl]pyridine-3-sulfonamide]",< 500
13,"C[C@@H](NS(=O)(=O)c1ccc(-c2c(C#N)c3ccc(F)cc3n2C2CCCCC2)nc1)C(F)(F)F [compound 252, 6-(3-cyano-1-cyclohexyl-6-fluoro-1H-indol-2-yl)-N-[(2R)-1,1,1-trifluoropropan-2-yl]pyridine-3-sulfonamide]",< 500
14,"COc1ccnc(-n2c(-c3ccc(S(=O)(=O)N[C@@H](C)C(F)(F)F)cn3)c(C#N)c3cc(F)c(C)cc32)n1 [compound 866, 6-[3-cyano-5-fluoro-1-(4-methoxypyrimidin-2-yl)-6-methyl-1H-indol-2-yl]-N-[(2S)-1,1,1-trifluoropropan-2-yl]pyridine-3-sulfonamide]",500 to 2000
15,"CC(C)NS(=O)(=O)c1ccc(-c2c(C#N)c3ccc(OC(F)(F)F)cc3n2C2CCCC2)nc1 [compound 17, 6-[3-cyano-1-cyclopentyl-6-(trifluoromethoxy)-1H-indol-2-yl]-N-(propan-2-yl)pyridine-3-sulfonamide]",500 to 2000
16,"Cc1cc2c(cc1F)c(C(N)=O)c(-c1ccc(S(=O)(=O)NC(C)(C)C)cn1)n2C1CCCC1 [compound 683, 2-[5-(tert-butylsulfamoyl)pyridin-2-yl]-1-cyclopentyl-5-fluoro-6-methyl-1H-indole-3-carboxamide]",< 500
